Assay results taken from US9999619B2, “Piperidin-4-yl azetidine derivatives as JAK1 inhibitors” (Incyte Corporation, priority 2010, dated 2018).

Key:
Format in all cases: biochemical
[1] = molecular target: human JAK1 (a.a. 837-1142) (Homo sapiens, UniProt P23458); assay: In vitro JAK kinase assay (HTRF, phosphorylation of a biotinylated peptide), JAK1; details: measured at 1 mM ATP
Method in brief: (§1)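 N-terminal His-tagged catalytic domains, baculovirus-expressed in insect cells, phosphorylated a biotinylated peptide for 1 hr at room temperature. EDTA stop was followed by SA-APC and Eu-Py20 antibody for 40 minutes, with phosphopeptide read by HTRF.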

[2] = molecular target: human JAK1 (a.a. 837-1142); assay: as above; details: ratio of JAK2 IC50 to JAK1 IC50, measured at 1 mM ATP
Method in brief: as §1

Jak2 (a.a. 828-1132) = Jak2 (a.a. 828-1132) (Homo sapiens (Human), UniProt O60674); assay: In vitro JAK kinase assay (HTRF, phosphorylation of a biotinylated peptide), JAK2; details: measured at 1 mM ATP
Method in brief: as §1

Sequence of Jak2 (a.a. 828-1132) (O60674 828-1132): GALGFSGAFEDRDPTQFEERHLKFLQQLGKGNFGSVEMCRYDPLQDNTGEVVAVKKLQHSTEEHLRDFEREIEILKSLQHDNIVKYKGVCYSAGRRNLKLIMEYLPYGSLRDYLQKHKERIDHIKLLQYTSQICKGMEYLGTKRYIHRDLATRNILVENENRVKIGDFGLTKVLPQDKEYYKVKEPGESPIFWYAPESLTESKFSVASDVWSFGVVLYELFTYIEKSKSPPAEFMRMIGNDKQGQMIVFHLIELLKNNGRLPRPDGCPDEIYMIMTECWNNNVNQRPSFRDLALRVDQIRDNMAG

SMILES	IC50 [1]	IC50 Ratio JAK2/JAK1 [2]	IC50 (Jak2 (a.a. 828-1132))
N#CCC1(n2cc(-c3c(F)cnc4[nH]ccc34)cn2)CN(C2CCN(C(=O)C3CCC(F)(F)CC3)CC2)C1 [Example 327, {1-{1-[(4,4-difluorocyclohexyl)carbonyl]piperidin-4-yl}-3-[4-(5-fluoro-1H-pyrrolo[2,3-b]pyridine-4-yl)-1H-pyrazol-1-yl]azetidin-3-yl}acetonitrile]	5 to 20 nM	4.1	50 to 100 nM
N#CCC1(n2cc(-c3c(C#N)cnc4[nH]ccc34)cn2)CN(C2CCN(C(=O)c3cc(Br)ccc3Br)CC2)C1 [Example 335, 4-(1-{3-(cyanomethyl)-1-[1-(2,5-dibromobenzoyl)piperidin-4-yl]azetidin-3-yl}-1H-pyrazol-4-yl)-1H-pyrrolo[2,3-b]pyridine-5-carbonitrile]	≤ 5 nM	2.4	≤ 10 nM
CC(C)NCc1cc(C(=O)N2CCC(N3CC(CC#N)(n4cc(-c5ncnc6[nH]ccc56)cn4)C3)CC2)nc(C(F)(F)F)n1 [Example 382, {1-(1-{[6-[(isopropylamino)methyl]-2-(trifluoromethyl)pyrimidin-4-yl]carbonyl}piperidin-4-yl)-3-[4-(7H-pyrrolo[2,3-d]pyrimidin-4-yl)-1H-pyrazol-1-yl]azetidin-3-yl}acetonitrile]	≤ 5 nM	26.7	10 to 50 nM
CN(C)c1ccc(S(=O)(=O)N2CCC(N3CC(CC#N)(n4cc(-c5ncnc6[nH]ccc56)cn4)C3)CC2)cc1C#N [Example 250, 5-[(4-{3-(cyanomethyl)-3-[4-(7H-pyrrolo[2,3-d]pyrimidin-4-yl)-1H-pyrazol-1-yl]azetidin-1-yl}piperidin-1-yl)sulfonyl]-2-(dimethylamino)benzonitrile]	≤ 5 nM	4.7	10 to 50 nM
N#CCC1(n2cc(-c3ncnc4[nH]ccc34)cn2)CN(C2CCN(C(=O)c3cc(F)ccc3F)CC2)C1 [Example 43, {1-[1-(2,5-difluorobenzoyl)piperidin-4-yl]-3-[4-(7H-pyrrolo[2,3-d]pyrimidin-4-yl)-1H-pyrazol-1-yl]azetidin-3-yl}acetonitrile]	≤ 5 nM	5.0	10 to 50 nM
N#CCC1(n2cc(-c3ncnc4[nH]ccc34)cn2)CN(C2CCN(C(=O)C3CCc4ccccc4C3)CC2)C1 (stereo not drawn) [Example 97, {3-[4-(7H-pyrrolo[2,3-d]pyrimidin-4-yl)-1H-pyrazol-1-yl]-1-[1-(1,2,3,4-tetrahydronaphthalen-2-ylcarbonyl)piperidin-4-yl]azetidin-3-yl}acetonitrile]	5 to 20 nM	2.2	10 to 50 nM
N#CCC1(n2cc(-c3ncnc4[nH]ccc34)cn2)CN(C2CCN(Cc3cccc(Oc4ccccc4)c3)CC2)C1 [Example 233, {1-[1-(3-phenoxybenzyl)piperidin-4-yl]-3-[4-(7H-pyrrolo[2,3-d]pyrimidin-4-yl)-1H-pyrazol-1-yl]azetidin-3-yl}acetonitrile]	20 to 30 nM	2.2	50 to 100 nM
CCNCc1cc(C(=O)N2CCC(N3CC(CC#N)(n4cc(-c5ncnc6[nH]ccc56)cn4)C3)CC2)nc(C(F)(F)F)n1 [Example 383, {1-(1-{[6-[(ethylamino)methyl]-2-(trifluoromethyl)pyrimidin-4-yl]carbonyl}piperidin-4-yl)-3-[4-(7H-pyrrolo[2,3-d]pyrimidin-4-yl)-1H-pyrazol-1-yl]azetidin-3-yl}acetonitrile]	≤ 5 nM	30.5	10 to 50 nM
N#CCC1(n2cc(-c3ncnc4[nH]ccc34)cn2)CN(C2CCN(C(=O)C3(c4ccc(Cl)cc4)CC3)CC2)C1 [Example 111, {1-(1-{[1-(4-chlorophenyl)cyclopropyl]carbonyl}piperidin-4-yl)-3-[4-(7H-pyrrolo[2,3-d]pyrimidin-4-yl)-1H-pyrazol-1-yl]azetidin-3-yl}acetonitrile]	5 to 20 nM	2.6	10 to 50 nM
N#CCC1(n2cc(-c3ccnc4[nH]ccc34)cn2)CN(C2CCN(C(=O)Nc3ccc(F)cc3Cl)CC2)C1 [Example 305, N-(2-chloro-4-fluorophenyl)-4-{3-(cyanomethyl)-3-[4-(1H-pyrrolo[2,3-b]pyridin-4-yl)-1H-pyrazol-1-yl]azetidin-1-yl}piperidine-1-carboxamide]	≤ 5 nM	16.0	50 to 100 nM
N#CCC1(n2cc(-c3ncnc4[nH]ccc34)cn2)CN(C2CCN(Cc3cc4ccccc4o3)CC2)C1 [Example 232, {1-[1-(1-benzofuran-2-ylmethyl)piperidin-4-yl]-3-[4-(7H-pyrrolo[2,3-d]pyrimidin-4-yl)-1H-pyrazol-1-yl]azetidin-3-yl}acetonitrile]	5 to 20 nM	0.7	≤ 10 nM
N#CCC1(n2cc(-c3ncnc4[nH]ccc34)cn2)CN(C2CCN(C(=O)Nc3ccc(Cl)cc3)CC2)C1 [Example 184, N-(4-chlorophenyl)-4-{3-(cyanomethyl)-3-[4-(7H-pyrrolo[2,3-d]pyrimidin-4-yl)-1H-pyrazol-1-yl]azetidin-1-yl}piperidine-1-carboxamide]	≤ 5 nM	3.9	≤ 10 nM
N#CCC1(n2ccc(-c3ncnc4[nH]ccc34)c2)CN(C2CCN(C(=O)c3cc(OC(F)(F)F)ccc3F)CC2)C1 [Example 269, {1-{1-[2-fluoro-5-(trifluoromethoxy)benzoyl]piperidin-4-yl}-3-[3-(7H-pyrrolo[2,3-d]pyrimidin-4-yl)-1H-pyrrol-1-yl]azetidin-3-yl}acetonitrile]	≤ 5 nM	5.0	10 to 50 nM

Other lines, results leading:

IC50 [1]	IC50 Ratio JAK2/JAK1 [2]	IC50 (Jak2 (a.a. 828-1132))	SMILES
≤ 5 nM	2.9	≤ 10 nM	N#CCC1(n2cc(-c3c(C#N)cnc4[nH]ccc34)cn2)CN(C2CCN(C(=O)c3cc(Br)cc(Br)c3)CC2)C1 [Example 336, 4-(1-{3-(cyanomethyl)-1-[1-(3,5-dibromobenzoyl)piperidin-4-yl]azetidin-3-yl}-1H-pyrazol-4-yl)-1H-pyrrolo[2,3-b]pyridine-5-carbonitrile]
≤ 5 nM	11.2	10 to 50 nM	N#CCC1(n2cc(-c3ncnc4[nH]ccc34)cn2)CN(C2CCN(C(=O)Nc3c(F)cccc3F)CC2)C1 [Example 156, 4-{3-(cyanomethyl)-3-[4-(7H-pyrrolo[2,3-d]pyrimidin-4-yl)-1H-pyrazol-1-yl]azetidin-1-yl}-N-(2,6-difluorophenyl)piperidine-1-carboxamide]
≤ 5 nM	12.0	10 to 50 nM	COc1ccc(C(=O)N2CCC(N3CC(CC#N)(n4cc(-c5ncnc6[nH]ccc56)cn4)C3)CC2)cc1F [Example 5, {1-[1-(3-fluoro-4-methoxybenzoyl)piperidin-4-yl]-3-[4-(7H-pyrrolo[2,3-d]pyrimidin-4-yl)-1H-pyrazol-1-yl]azetidin-3-yl}acetonitrile]
≤ 5 nM	8.1	10 to 50 nM	N#CCC1(n2cc(-c3ncnc4[nH]ccc34)cn2)CN(C2CCN(C(=O)c3ccc(-c4cccc5ccncc45)c(F)c3)CC2)C1 [Example 131, {1-[1-(3-fluoro-4-isoquinolin-8-ylbenzoyl)piperidin-4-yl]-3-[4-(7H-pyrrolo[2,3-d]pyrimidin-4-yl)-1H-pyrazol-1-yl]azetidin-3-yl}acetonitrile]
5 to 20 nM	3.1	10 to 50 nM	N#CCC1(n2ccc(-c3ncnc4[nH]ccc34)c2)CN(C2CCN(C(=O)c3cccc(C(F)(F)F)c3)CC2)C1 [Example 268, (3-[3-(7H-pyrrolo[2,3-d]pyrimidin-4-yl)-1H-pyrrol-1-yl]-1-{1-[3-(trifluoromethyl)benzoyl]piperidin-4-yl}azetidin-3-yl)acetonitrile]
≤ 5 nM	5.5	≤ 10 nM	N#CCC1(n2cc(-c3ncnc4[nH]ccc34)cn2)CN(C2CCN(C(=O)c3ccc(Cl)s3)CC2)C1 [Example 77, {1-{1-[(5-chloro-2-thienyl)carbonyl]piperidin-4-yl}-3-[4-(7H-pyrrolo[2,3-d]pyrimidin-4-yl)-1H-pyrazol-1-yl]azetidin-3-yl}acetonitrile]
5 to 20 nM	2.1	10 to 50 nM	N#CCC1(n2cc(-c3ncnc4[nH]ccc34)cn2)CN(C2CCN(S(=O)(=O)c3ccc(C#N)cc3)CC2)C1 [Example 249, 4-[(4-{3-(cyanomethyl)-3-[4-(7H-pyrrolo[2,3-d]pyrimidin-4-yl)-1H-pyrazol-1-yl]azetidin-1-yl}piperidin-1-yl)sulfonyl]benzonitrile]
5 to 20 nM	3.7	50 to 100 nM	N#CCC1(n2cc(-c3ncnc4[nH]ccc34)cn2)CN(C2CCN(C(=O)C3CCC(C(F)(F)F)CC3)CC2)C1 (stereo not drawn) [Example 98, {3-[4-(7H-pyrrolo[2,3-d]pyrimidin-4-yl)-1H-pyrazol-1-yl]-1-(1-{[4-(trifluoromethyl)cyclohexyl]carbonyl}piperidin-4-yl)azetidin-3-yl]acetonitrile]
5 to 20 nM	2.4	10 to 50 nM	N#CCC1(n2cc(-c3ncnc4[nH]ccc34)cn2)CN(C2CCN(Cc3cccc(Cl)c3Cl)CC2)C1 [Example 219, {1-[1-(2,3-dichlorobenzyl)piperidin-4-yl]-3-[4-(7H-pyrrolo[2,3-d]pyrimidin-4-yl)-1H-pyrazol-1-yl]azetidin-3-yl}acetonitrile]
≤ 5 nM	10.8	≤ 10 nM	N#CCC1(n2cc(-c3ncnc4[nH]ccc34)cn2)CN(C2CCN(C(=O)c3cccc(C(F)(F)F)c3F)CC2)C1 [Example 7, {1-{1-[2-fluoro-3-(trifluoromethyl)benzoyl]piperidin-4-yl}-3-[4-(7H-pyrrolo[2,3-d]pyrimidin-4-yl)-1H-pyrazol-1-yl]azetidin-3-yl}acetonitrile]
